Measured values from PubChem BioAssay AID256 (DTP/NCI, 2004).
Several values for one entry are separate records, joined by “and”; a condition that tells them apart may be missing. Equal entries are not always repeated. Inconclusive results and toxic doses are left out. The calls were made as follows: active = survival T/C of 150% or more; inactive = T/C below 125% in these data.

Test system: CD2F1 mice, L1210 leukemia ip, survival T/C
Assay: NCI In Vivo Anticancer Drug Screen. Data for tumor model L1210 Leukemia (intraperitoneal) in CD2F1 (CDF1) mice
Details: higher = longer survival
Outline: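 Read-out first: treated-group measurement over vehicle-control measurement, expressed as a ratio. Animals bore a transplanted tumor line and were dosed with compound or vehicle.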

Measured: T/C

O=C(O)CCCc1ccc(N(CCCl)CCCl)cc1
inactive: endpoint: mean survival time, dose: 0.5 mg/kg/injection, schedule: Q01DX009 (ip), vehicle: Klucel (hydroxypropylcellulose) (HPC) 103 % of control and 108 % of control | endpoint: mean survival time, dose: 1.0 mg/kg/injection, schedule: Q01DX009 (ip), vehicle: Klucel (hydroxypropylcellulose) (HPC) 94 % of control and 100 % of control and 106 % of control | endpoint: mean survival time, dose: 1.0 mg/kg/injection, schedule: Q03HX024 (ip), vehicle: other 102 % of control | endpoint: mean survival time, dose: 1.56 mg/kg/injection, schedule: Q01DX009 (ip), vehicle: saline 101 % of control and 103 % of control | endpoint: mean survival time, dose: 2.0 mg/kg/injection, schedule: Q01DX009 (ip), vehicle: Klucel (hydroxypropylcellulose) (HPC) 97 % of control and 100 % of control and 103 % of control | endpoint: mean survival time, dose: 2.0 mg/kg/injection, schedule: Q01DX009 (ip), vehicle: saline with Tween-80 106 % of control | endpoint: mean survival time, dose: 2.0 mg/kg/injection, schedule: Q01DX009 (oral), vehicle: other 102 % of control | endpoint: mean survival time, dose: 2.0 mg/kg/injection, schedule: Q03HX008 (ip), vehicle: other 101 % of control | endpoint: mean survival time, dose: 2.0 mg/kg/injection, schedule: Q03HX016 (ip), vehicle: other 103 % of control | endpoint: mean survival time, dose: 2.0 mg/kg/injection, schedule: Q03HX024 (ip), vehicle: other 105 % of control | endpoint: mean survival time, dose: 3.13 mg/kg/injection, schedule: Q01DX009 (ip), vehicle: saline 119 % of control and 110 % of control | endpoint: mean survival time, dose: 3.75 mg/kg/injection, schedule: Q01DX009 (ip), vehicle: Klucel (hydroxypropylcellulose) (HPC) 102 % of control | endpoint: mean survival time, dose: 4.0 mg/kg/injection, schedule: Q01DX001 (ip), vehicle: saline with Tween-80 91 % of control | endpoint: mean survival time, dose: 4.0 mg/kg/injection, schedule: Q01DX001 (oral), vehicle: other 95 % of control | endpoint: mean survival time, dose: 4.0 mg/kg/injection, schedule: Q01DX009 (ip), vehicle: Klucel (hydroxypropylcellulose) (HPC) 116 % of control and 101 % of control and 111 % of control | endpoint: mean survival time, dose: 4.0 mg/kg/injection, schedule: Q01DX009 (ip), vehicle: other 114 % of control | endpoint: mean survival time, dose: 4.0 mg/kg/injection, schedule: Q01DX009 (ip), vehicle: saline with Tween-80 117 % of control and 103 % of control | endpoint: mean survival time, dose: 4.0 mg/kg/injection, schedule: Q01DX009 (oral), vehicle: other 96 % of control | endpoint: mean survival time, dose: 4.0 mg/kg/injection, schedule: Q01DX009 (sc), vehicle: other 102 % of control | endpoint: mean survival time, dose: 4.0 mg/kg/injection, schedule: Q03HX008 (ip), vehicle: other 102 % of control | endpoint: mean survival time, dose: 4.0 mg/kg/injection, schedule: Q03HX016 (ip), vehicle: other 110 % of control | endpoint: mean survival time, dose: 4.0 mg/kg/injection, schedule: Q03HX024 (ip), vehicle: other 111 % of control | endpoint: mean survival time, dose: 4.0 mg/kg/injection, schedule: Q04DX003 (ip), vehicle: saline with Tween-80 102 % of control | endpoint: mean survival time, dose: 4.0 mg/kg/injection, schedule: Q04DX003 (oral), vehicle: other 107 % of control | endpoint: mean survival time, dose: 6.25 mg/kg/injection, schedule: Q01DX009 (ip), vehicle: saline 106 % of control and 110 % of control | endpoint: mean survival time, dose: 7.5 mg/kg/injection, schedule: Q01DX007 (ip), vehicle: saline 108 % of control | endpoint: mean survival time, dose: 7.5 mg/kg/injection, schedule: Q01DX009 (ip), vehicle: saline 114 % of control | endpoint: mean survival time, dose: 7.5 mg/kg/injection, schedule: Q03DX003 (ip), vehicle: saline 104 % of control | endpoint: mean survival time, dose: 7.5 mg/kg/injection, schedule: Q04DX003 (ip), vehicle: saline 102 % of control | endpoint: mean survival time, dose: 8.0 mg/kg/injection, schedule: Q01DX001 (ip), vehicle: saline with Tween-80 96 % of control | endpoint: mean survival time, dose: 8.0 mg/kg/injection, schedule: Q01DX001 (oral), vehicle: other 96 % of control | endpoint: mean survival time, dose: 8.0 mg/kg/injection, schedule: Q01DX009 (ip), vehicle: Klucel (hydroxypropylcellulose) (HPC) 113 % of control and 117 % of control and 105 % of control | endpoint: mean survival time, dose: 8.0 mg/kg/injection, schedule: Q01DX009 (ip), vehicle: other 120 % of control | endpoint: mean survival time, dose: 8.0 mg/kg/injection, schedule: Q01DX009 (ip), vehicle: saline with Tween-80 117 % of control and 101 % of control | endpoint: mean survival time, dose: 8.0 mg/kg/injection, schedule: Q01DX009 (oral), vehicle: other 106 % of control | endpoint: mean survival time, dose: 8.0 mg/kg/injection, schedule: Q01DX009 (sc), vehicle: other 111 % of control | endpoint: mean survival time, dose: 8.0 mg/kg/injection, schedule: Q03HX008 (ip), vehicle: other 119 % of control | endpoint: mean survival time, dose: 8.0 mg/kg/injection, schedule: Q03HX016 (ip), vehicle: other 118 % of control | endpoint: mean survival time, dose: 8.0 mg/kg/injection, schedule: Q04DX003 (ip), vehicle: other 118 % of control | endpoint: mean survival time, dose: 8.0 mg/kg/injection, schedule: Q04DX003 (ip), vehicle: saline with Tween-80 109 % of control | endpoint: mean survival time, dose: 8.0 mg/kg/injection, schedule: Q04DX003 (oral), vehicle: other 96 % of control | endpoint: mean survival time, dose: 10.0 mg/kg/injection, schedule: Q01DX009 (ip), vehicle: saline with Tween-80 118 % of control | endpoint: mean survival time, dose: 12.5 mg/kg/injection, schedule: Q01DX009 (ip), vehicle: saline 119 % of control | endpoint: mean survival time, dose: 15.0 mg/kg/injection, schedule: Q01DX007 (ip), vehicle: saline 122 % of control | endpoint: mean survival time, dose: 15.0 mg/kg/injection, schedule: Q01DX009 (ip), vehicle: Klucel (hydroxypropylcellulose) (HPC) 108 % of control | endpoint: mean survival time, dose: 15.0 mg/kg/injection, schedule: Q01DX009 (ip), vehicle: saline with Tween-80 120 % of control | endpoint: mean survival time, dose: 15.0 mg/kg/injection, schedule: Q01DX009 (ip), vehicle: saline 120 % of control | endpoint: mean survival time, dose: 15.0 mg/kg/injection, schedule: Q03DX003 (ip), vehicle: saline 117 % of control | endpoint: mean survival time, dose: 15.0 mg/kg/injection, schedule: Q04DX003 (ip), vehicle: saline 111 % of control | endpoint: mean survival time, dose: 16.0 mg/kg/injection, schedule: Q01DX001 (ip), vehicle: other 102 % of control | endpoint: mean survival time, dose: 16.0 mg/kg/injection, schedule: Q01DX001 (ip), vehicle: saline with Tween-80 107 % of control | endpoint: mean survival time, dose: 16.0 mg/kg/injection, schedule: Q01DX001 (oral), vehicle: other 93 % of control | endpoint: mean survival time, dose: 16.0 mg/kg/injection, schedule: Q01DX001 (sc), vehicle: other 104 % of control | endpoint: mean survival time, dose: 16.0 mg/kg/injection, schedule: Q01DX009 (ip), vehicle: Klucel (hydroxypropylcellulose) (HPC) 114 % of control and 97 % of control | endpoint: mean survival time, dose: 16.0 mg/kg/injection, schedule: Q01DX009 (ip), vehicle: saline with Tween-80 118 % of control and 97 % of control | endpoint: mean survival time, dose: 16.0 mg/kg/injection, schedule: Q01DX009 (oral), vehicle: other 120 % of control | endpoint: mean survival time, dose: 16.0 mg/kg/injection, schedule: Q01DX009 (sc), vehicle: other 120 % of control | endpoint: mean survival time, dose: 16.0 mg/kg/injection, schedule: Q04DX003 (ip), vehicle: other 115 % of control | endpoint: mean survival time, dose: 16.0 mg/kg/injection, schedule: Q04DX003 (ip), vehicle: saline with Tween-80 120 % of control | endpoint: mean survival time, dose: 16.0 mg/kg/injection, schedule: Q04DX003 (oral), vehicle: other 103 % of control | endpoint: mean survival time, dose: 16.0 mg/kg/injection, schedule: Q08DX002 (ip), vehicle: other 101 % of control | endpoint: mean survival time, dose: 30.0 mg/kg/injection, schedule: Q01DX007 (ip), vehicle: saline with Tween-80 90 % of control | endpoint: mean survival time, dose: 30.0 mg/kg/injection, schedule: Q01DX009 (ip), vehicle: Klucel (hydroxypropylcellulose) (HPC) 110 % of control | endpoint: mean survival time, dose: 30.0 mg/kg/injection, schedule: Q01DX009 (ip), vehicle: saline 124 % of control | endpoint: mean survival time, dose: 30.0 mg/kg/injection, schedule: Q04DX003 (ip), vehicle: saline 114 % of control | endpoint: mean survival time, dose: 32.0 mg/kg/injection, schedule: Q01DX001 (ip), vehicle: other 108 % of control | endpoint: mean survival time, dose: 32.0 mg/kg/injection, schedule: Q01DX001 (ip), vehicle: saline with Tween-80 117 % of control and 109 % of control | endpoint: mean survival time, dose: 32.0 mg/kg/injection, schedule: Q01DX001 (oral), vehicle: other 96 % of control | endpoint: mean survival time, dose: 32.0 mg/kg/injection, schedule: Q01DX001 (sc), vehicle: other 108 % of control | endpoint: mean survival time, dose: 32.0 mg/kg/injection, schedule: Q01DX009 (oral), vehicle: other 102 % of control | endpoint: mean survival time, dose: 32.0 mg/kg/injection, schedule: Q04DX003 (ip), vehicle: other 120 % of control | endpoint: mean survival time, dose: 32.0 mg/kg/injection, schedule: Q04DX003 (oral), vehicle: other 103 % of control | endpoint: mean survival time, dose: 32.0 mg/kg/injection, schedule: Q08DX002 (ip), vehicle: other 108 % of control | endpoint: mean survival time, dose: 64.0 mg/kg/injection, schedule: Q01DX001 (ip), vehicle: other 118 % of control | endpoint: mean survival time, dose: 64.0 mg/kg/injection, schedule: Q01DX001 (oral), vehicle: other 102 % of control | endpoint: mean survival time, dose: 64.0 mg/kg/injection, schedule: Q01DX001 (sc), vehicle: other 114 % of control | endpoint: mean survival time, dose: 64.0 mg/kg/injection, schedule: Q04DX003 (oral), vehicle: other 93 % of control | endpoint: mean survival time, dose: 64.0 mg/kg/injection, schedule: Q08DX002 (ip), vehicle: other 112 % of control | endpoint: median survival time, dose: 3.13 mg/kg/injection, schedule: Q01DX009 (ip), vehicle: saline 114 % of control and 105 % of control | endpoint: median survival time, dose: 6.25 mg/kg/injection, schedule: Q01DX009 (ip), vehicle: saline 114 % of control and 105 % of control | endpoint: median survival time, dose: 12.5 mg/kg/injection, schedule: Q01DX009 (ip), vehicle: saline 117 % of control

COc1ccc(C(=O)/C=C/c2cccc3ccccc23)cc1
inactive: endpoint: mean survival time, dose: 25.0 mg/kg/injection, schedule: Q01DX009 (ip), vehicle: saline with Tween-80 91 % of control | endpoint: mean survival time, dose: 50.0 mg/kg/injection, schedule: Q01DX009 (ip), vehicle: saline with Tween-80 93 % of control | endpoint: mean survival time, dose: 100.0 mg/kg/injection, schedule: Q01DX009 (ip), vehicle: saline with Tween-80 91 % of control
